{"source": "BindingDB's records for doi:10.1021/jm070728r", "about": "(University of Bari, 2007)", "key": {"[1]": {"biological_target": "T1, Amine oxidase [flavin-containing] B (Rattus norvegicus, UniProt P19643)", "T1 sequence (P19643 whole entry)": "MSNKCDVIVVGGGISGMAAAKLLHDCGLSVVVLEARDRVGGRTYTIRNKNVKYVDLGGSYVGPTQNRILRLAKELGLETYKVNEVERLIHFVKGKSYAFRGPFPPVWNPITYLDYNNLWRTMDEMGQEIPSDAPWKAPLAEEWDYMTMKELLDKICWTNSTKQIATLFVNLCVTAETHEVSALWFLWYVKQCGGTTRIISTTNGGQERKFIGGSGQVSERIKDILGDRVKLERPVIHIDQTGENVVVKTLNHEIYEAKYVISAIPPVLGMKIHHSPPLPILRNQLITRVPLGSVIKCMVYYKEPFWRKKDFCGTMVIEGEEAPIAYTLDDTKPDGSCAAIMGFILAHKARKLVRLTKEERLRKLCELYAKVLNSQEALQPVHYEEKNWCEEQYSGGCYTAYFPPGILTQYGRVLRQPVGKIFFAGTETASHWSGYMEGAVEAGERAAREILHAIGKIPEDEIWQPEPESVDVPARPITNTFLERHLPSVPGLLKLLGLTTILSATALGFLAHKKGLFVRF", "assay": "MAO Inhibition Assay", "description": "(§1) A continuous spectrophotometric assay that monitors the rate of oxidation of the nonselective MAO substrate kynuramine into 4-hydroxyquinoline was used. clorgyline or selegiline was preincubated with the suspension for 5 min to measure MAO-B or MAO-A activity, respectively. […] IC50 values were determined and calculated from a hyperbolic equation. Each assay was performed in triplicate on four to six separate homogenates."}, "[2]": {"biological_target": "T2, Amine oxidase [flavin-containing] A (Rattus norvegicus, UniProt P21396)", "T2 sequence (P21396 whole entry)": "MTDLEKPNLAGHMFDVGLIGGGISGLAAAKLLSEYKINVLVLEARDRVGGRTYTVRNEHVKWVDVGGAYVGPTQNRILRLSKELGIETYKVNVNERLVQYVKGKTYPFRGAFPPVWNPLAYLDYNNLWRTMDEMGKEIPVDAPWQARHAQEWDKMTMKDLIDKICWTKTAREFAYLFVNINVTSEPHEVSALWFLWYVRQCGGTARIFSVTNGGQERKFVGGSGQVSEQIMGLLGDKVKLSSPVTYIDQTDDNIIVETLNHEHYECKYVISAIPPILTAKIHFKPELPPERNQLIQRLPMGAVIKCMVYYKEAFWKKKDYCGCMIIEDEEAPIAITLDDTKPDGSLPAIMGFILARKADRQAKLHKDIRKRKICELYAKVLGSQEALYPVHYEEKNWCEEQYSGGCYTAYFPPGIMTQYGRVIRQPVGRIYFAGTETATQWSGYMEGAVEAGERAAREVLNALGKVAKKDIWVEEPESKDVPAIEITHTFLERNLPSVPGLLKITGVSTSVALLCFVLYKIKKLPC", "assay": "MAO Inhibition Assay", "settings": "pH 7.4; 37 °C", "description": "as §1"}}, "data": [{"smiles": "c1ccc(-c2nc3cc4ccccc4c-3c[nH]2)cc1", "note": "[2-phenyl-9H-indeno[2,1-d]pyrimidine]", "values": [{"measurement": "IC50", "setting": "[1]", "value": 13, "unit": "µM"}, {"measurement": "IC50", "setting": "[2]", "value": 16.7, "unit": "µM"}]}, {"smiles": "c1ccc(-c2cc3c(nn2)-c2ccccc2C3)cc1", "values": [{"measurement": "IC50", "setting": "[2]", "value": "> 100", "unit": "µM"}]}]}
